Data taken from patent publication US10472677B2, “Translational dysfunction based therapeutics” (Translational Therapeutics, Inc., priority 2005, dated 2019).

Tests used:
[1] = system: cyclin D1 protein in NIH 3T3 cells; assay: Western blot of total extracts of treated cells; format: cell-based, mouse
Description: Protein concentrations were determined by using bicinchoninic acid-copper reduction (Pierce) and 20-μg aliquots were resolved using SDS/PAGE, transferred to Immobilon-P membrane (Millipore), blocked, and probed by using primary antibodies against eIF4E (1:5000, Transduction Laboratories), cyclin D1 (1:500, Becton Dickinson), β-actin (1:5000, Sigma), c-myc (1:1000, Becton Dickinson), and Sc35 (1:5000, Santa Cruz Biotechnology). Bound antibodies were chemiluminescently detected by using horseradish peroxidase-conjugated secondary antibodies (Amersham Pharmacia) and SuperSignal West Pico reagent according to manufacturer's instructions (Pierce).

[2] = system: NIH 3T3 cells; format: cell-based, mouse
Description: For assessment of necrosis and apoptosis, cells were washed twice with PBS, suspended in 0.14 M NaCl/10 mM Na-Hepes (pH 7.4/2.5 mM CaCl2 at 4° C. at a density of 10^6 cell per ml, and stained with 5 μg/ml propidium iodide and FITC-conjugated annexin V (Becton Dickinson) for 15 min at room temperature Immediately thereafter, cells were washed and analyzed by using a FACSCalibur fluorescence-activated cell scanner (Becton Dickinson). For assessment of cell-cycle profiles, cells were washed twice with PBS, fixed, and permeabilized in 70% (vol/vol) ethanol for 30 min at 4° C., and incubated in PBS containing 10 μg/ml propidium iodide and 30 units/ml RNase A at 37° C. for 30 min. For both measurements, detector gain and compensation settings were adjusted to minimize autofluorescence of unstained cells and channel crosstalk. For cell-cycle analysis, the propidium iodide channel was gated based on light scattering to exclude clumped cells, which may artifactually skew the observed fluorescence intensity.
Cells were seeded at a density of 5,000 cells per well and maintained in 100 μl per well in 96-well plates. […] Production of formazan was quantified by using a μ Quant plate reader (Bio-Tek Instruments) by monitoring the difference in absorbance at 492 and 690 nm, as referenced to the difference in absorbance of samples containing 50 μl of RPMI medium 1640 without phenol red. […]

[3] = system: cyclin D1 mRNA transport in NIH 3T3 cells; assay: nucleocytoplasmic mRNA transport, fractionation with Northern / quantitative PCR; format: cell-based, mouse
Description: Cells were washed twice with PBS and lysed by slow pipetting in 0.14 M NaCl/10 mM Tris.HCl (pH 8.4)/1.5 mM MgCl2/0.5% (vol/vol) Nonidet P-40/1 mM DTT/100 units/ml RNasin (Promega) at 4° C. Lysed suspensions were centrifuged at 1,000×g for 3 min at 4° C., and the supernatant was saved as the cytoplasmic fraction. Nuclear pellets were resuspended in lysis buffer, and 1/10th volume of 3.3% (wt/vol) sodium deoxycholate and 6.6% (vol/vol) Tween 40 was added under slow vortexing, and incubated at 4° C. for 5 min. Nuclei were sedimented by centrifugation at 1,000×g for 3 min at 4° C., and the supernatant (postnuclear fraction) was added to the cytoplasmic fraction. This yielded intact nuclei, as observed by using light microscopy, with no significant cytoplasmic contamination, as evaluated using tRNA^Lys and β-actin contents. Fractionated cytoplasm was free of nuclear contamination, as indicated by absence of U6 snRNA and Sc35.
RNA from whole cells or nuclear and cytoplasmic fractions was extracted by using Trizol according to manufacturer's instructions (GIBCO). Isolated RNAs were treated with RNase-free DNase I (Promega) and 5-1 μg aliquots were resolved on 1% formaldehydeagarose gel and transferred to a positively charged nylon membrane (Roche, Nutley, N.J.). Membranes were prehybridized in ULTRAhyb buffer (Ambion) and probed with 20 μM cyclin D1 cDNA probe, 5 μM β-actin cDNA probe, 30 μM biotinylated tRNA^Lys antisense oligo probe, and 30 μM biotinylated U6 small nuclear RNA antisense oligo probe. cDNA probes were biotinylated by using BrightStar psoralen-biotin and observed by using CDP Star chemiluminescence according to the manufacturer's instructions (Ambion). Band intensity and film response were quantified by using NIH IMAGE.
Cell pellets (500 mg) were homogenized in 1 ml of ice cold lysis buffer (20 mM Hepes/10 mM magnesium acetate/100 mM potassium acetate, pH 7.5) supplemented with protease inhibitors (EDTA-free Complete, Roche) and 400 units/ml of SUPERasine (Ambion), and incubated for 30 min on ice with occasional vortexing. Lysates were sedimented at 3,000×g for 10 min at 4° C. to pellet nuclei and cell debris. Supernatants were sedimented at 12,000×g for 20 min at 4° C. to pellet mitochondria. […] RNA content of fractions was ascertained by using the ratio of absorbance at 260:280 nm. […] RNA from each fraction was quantified by spectrophotometry and 40 ng was converted into cDNA by using the Sensiscript reverse transcription kit (Qiagen, Valencia, Calif.). Quantitative real-time PCR was carried out in triplicate by using the QuantiTect SYBR green real-time PCR Kit (Qiagen) in an Opticon thermal cycler (MJ Research, Waltham, Mass.). […] Obtained real-time PCR profiles were analyzed by using Opticon software (MJ Research).

[4] = system: eIF4E-transfected NIH 3T3 cells; assay: transformation assay, anchorage-dependent foci formation; format: cell-based; conditions: Mus musculus, NIH3T3, read-out: apparent EC50 suppression of eIF4E-mediated transformation

In the case of `NC(=O)c1ncn([C@@H]2O[C@H](CO)[C@@H](O)[C@H]2O)n1` [Ribavirin, 1-β-D-ribofuranosyl-1,2,4-triazole-3-carboxamide], the “levels of B-actin and eIF4E proteins” value [1] is reported as “not reduced”, the EC50 ([1]; Mus musculus, NIH3T3, read-out: apparent EC50 reduction of cyclin D1 protein levels) is reported as 100 to 1000 nM and the “proportion of cells restricted to the G1 phase” value ([2]; 0.1 μM, untreated 58%) is reported as 91%. For the same compound, the “concentration with significant effects on viability and metabolism” value ([2]; mouse) was no less than 100 µM, the “nuclear retention of cyclin D1 mRNA” value ([3]; 0.1 μM, quantitative real-time PCR) was 2 fold and the EC50 ([3]; Mus musculus, NIH3T3, NIH 3T3, read-out: apparent EC50 inhibition of nucleocytoplasmic cyclin D1 mRNA transport) was roughly 1000 nM. The “concentration of nearly complete nuclear retention of cyclin D1 mRNA” value ([3]; NIH 3T3) was 100 µM, the “nucleocytoplasmic transport of B-actin and VEGF mRNAs” value ([3]; at 100 uM) was “not affected” and the EC50 [4] was 100 to 1000 nM.
